Values belong to the compound of their own block, whether it stands above or below them. Activity calls are given as the source filed them. The calls are words filed in the database; no cut-off is given here. Starred links: 1 amine or outer side, 2 acyl side, 3 side chain; linkers in the order of their positions; H or OH if unused. Positions of bridges follow the written chain, without caps; N, C: chain ends. Non-standard residues stand in square brackets, D forms with d. Residues, ends and D or L forms follow the SMILES beside them. Chains are numbered I, II in the order given. *: point of attachment. Hexanoyl(6-succinimido-3yl) = O=C1CC([*:1])C(=O)N1CCCCCC(=O)[*:2]; Dolaproine = CO[C@@H]([C@@H]1CCCN1)[C@@H](C)C(=O)O; Dil = CC[C@H](C)[C@H](NC)[C@@H](CC(=O)O)OC; PABC = O=C(OCc1ccc(N[*:1])cc1)[*:2]; X1 = C[C@@H](N*)[C@@H](O)c1ccccc1; Cit = NC(=O)NCCC[C@H](N)C(=O)O; NMeV = CN[C@H](C(=O)O)C(C)C
Key:
Hep 3B2 = experiment: Antiproliferative activity against GPC3-positive human Hep3B cells assessed as cytotoxicity measured after 72 hrs by MTT assay; format: functional, cell-based
Huh-7 = experiment: Antiproliferative activity against GPC3-positive human Huh-7 cells assessed as cytotoxicity measured after 72 hrs by MTT assay; format: functional, cell-based; conditions: Huh-7, 72 h
HeLa = experiment: Antiproliferative activity against GPC3-negative human HeLa cells assessed as cytotoxicity measured after 72 hrs by MTT assay; format: functional, cell-based
LX-2 = experiment: Antiproliferative activity against GPC3-negative human LX-2 cells assessed as cytotoxicity measured after 72 hrs by MTT assay; format: functional, cell-based; conditions: LX-2, 72 h
[1] = Plasma stability in human plasma assessed as compound remaining at 500 uM measured after 8 hrs by LC-MS/MS analysis relative to control; format: ADME, cell-free; conditions: read-out: Stability
[2] = Plasma stability in human plasma assessed as compound remaining at 500 uM measured after 48 hrs by LC-MS/MS analysis relative to control; format: ADME, cell-free; conditions: read-out: Stability
[3] = Plasma stability in mouse plasma assessed as compound remaining at 500 uM measured after 8 hrs by LC-MS/MS analysis relative to control; format: ADME, cell-free; conditions: read-out: Stability
[4] = Plasma stability in human plasma assessed as half life at 500 uM by LC-MS/MS analysis; format: ADME, cell-free
[5] = Plasma stability in mouse plasma assessed as half life at 500 uM by LC-MS/MS analysis; format: ADME, cell-free
[6] = Stability in PBS at 500 uM measured up to 48 hrs by LC-MS/MS analysis; format: physicochemical; conditions: buffer
Cathepsin B = Cathepsin B (Homo sapiens, UniProt P07858); experiment: Drug metabolism assessed as human cathepsin B-mediated monomethyl auristatin E release in HEK293 cells at pH 5.5 buffer measured after 30 mins by LC-MS/MS analysis; format: ADME, cell-based; conditions: hek293, pH 5.5, 0.5 h
[7] = Toxicity in female BALB/c mouse xenografted with human Huh-7 cells assessed as body weight change at 0.5 to 2 mg/kg, iv total 4 doses measured on day 17; format: organism-based; conditions: in vivo, 408 h, dose 0.5-2 mg/kg, time 17 day
[8] = Toxicity in female BALB/c mouse xenografted with human Huh-7 cells assessed as pathological change in heart tissue at 2 mg/kg, iv total 4 doses measured on day 17 by hematoxylin and eosin (H and E) staining analysis; format: organism-based; conditions: in vivo, 408 h, time 17 day
[9] = Toxicity in female BALB/c mouse xenografted with human Huh-7 cells assessed as pathological change in liver tissue at 2 mg/kg, iv total 4 doses measured on day 17 by hematoxylin and eosin (H and E) staining analysis; format: organism-based; conditions: in vivo, 408 h, time 17 day
[10] = Toxicity in female BALB/c mouse xenografted with human Huh-7 cells assessed as pathological change in spleen tissue at 2 mg/kg, iv total 4 doses measured on day 17 by hematoxylin and eosin (H and E) staining analysis; format: organism-based; conditions: in vivo, 408 h, time 17 day
[11] = Toxicity in female BALB/c mouse xenografted with human Huh-7 cells assessed as pathological change in lung tissue at 2 mg/kg, iv total 4 doses measured on day 17 by hematoxylin and eosin (H and E) staining analysis; format: organism-based; conditions: in vivo, 408 h, time 17 day
[12] = Toxicity in female BALB/c mouse xenografted with human Huh-7 cells assessed as pathological change in kidney tissue at 2 mg/kg, iv total 4 doses measured on day 17 by hematoxylin and eosin (H and E) staining analysis; format: organism-based; conditions: in vivo, 408 h, time 17 day
[13] = Toxicity in female BALB/c mouse xenografted with human Huh-7 cells assessed as body weight change at 1 mg/kg, iv followed by irradiated with 2 Gy for 2 consecutive days, once a week for 3 weeks measured on day 22; format: organism-based; conditions: in vivo, 528 h, time 22 day
[14] = Toxicity in female BALB/c mouse xenografted with human Huh-7 cells assessed as pathological change in heart tissue at 1 mg/kg, iv followed by irradiated with 2 Gy for 2 consecutive days, once a week for 3 weeks measured on day 22; format: organism-based; conditions: in vivo, 528 h, time 22 day
[15] = Toxicity in female BALB/c mouse xenografted with human Huh-7 cells assessed as pathological change in liver tissue at 1 mg/kg, iv followed by irradiated with 2 Gy for 2 consecutive days, once a week for 3 weeks measured on day 22; format: organism-based; conditions: in vivo, 528 h, time 22 day
[16] = Toxicity in female BALB/c mouse xenografted with human Huh-7 cells assessed as pathological change in spleen tissue at 1 mg/kg, iv followed by irradiated with 2 Gy for 2 consecutive days, once a week for 3 weeks measured on day 22; format: organism-based; conditions: in vivo, 528 h, time 22 day
[17] = Toxicity in female BALB/c mouse xenografted with human Huh-7 cells assessed as pathological change in lung tissue at 1 mg/kg, iv followed by irradiated with 2 Gy for 2 consecutive days, once a week for 3 weeks measured on day 22; format: organism-based; conditions: in vivo, 528 h, time 22 day
[18] = Toxicity in female BALB/c mouse xenografted with human Huh-7 cells assessed as pathological change in kidney tissue at 1 mg/kg, iv followed by irradiated with 2 Gy for 2 consecutive days, once a week for 3 weeks measured on day 22; format: organism-based; conditions: in vivo, 528 h, time 22 day
[19] = target: Glypican-3 (Homo sapiens) (UniProt P51654); experiment: Binding affinity to GPC3 in human Hep3B cells assessed as increase in fluorescence (red color) by immunofluorescence staining based assay; format: cell-based
Chain of Glypican-3 (Homo sapiens) (P51654 25-358 limits assumed): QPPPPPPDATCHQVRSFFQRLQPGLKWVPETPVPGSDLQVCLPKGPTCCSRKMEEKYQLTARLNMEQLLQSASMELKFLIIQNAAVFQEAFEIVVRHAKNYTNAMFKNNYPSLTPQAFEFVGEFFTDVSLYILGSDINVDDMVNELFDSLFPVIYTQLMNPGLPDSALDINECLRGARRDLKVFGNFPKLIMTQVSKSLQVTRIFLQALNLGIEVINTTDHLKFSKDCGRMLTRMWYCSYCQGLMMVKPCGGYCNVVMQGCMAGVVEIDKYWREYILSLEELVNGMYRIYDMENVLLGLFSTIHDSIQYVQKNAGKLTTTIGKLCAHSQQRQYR
Chain of Glypican-3 (Homo sapiens) (P51654 359-554 limits assumed): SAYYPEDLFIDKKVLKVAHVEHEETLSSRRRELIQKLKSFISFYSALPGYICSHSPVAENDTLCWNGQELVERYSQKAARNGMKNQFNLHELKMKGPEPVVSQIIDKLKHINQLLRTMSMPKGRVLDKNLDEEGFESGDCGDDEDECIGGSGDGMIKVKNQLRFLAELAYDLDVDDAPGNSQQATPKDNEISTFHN

[20] = target: Glypican-3 (Homo sapiens) (UniProt P51654); experiment: Binding affinity to GPC3 in human Huh-7 cells assessed as increase in fluorescence (red color) by immunofluorescence staining based assay; format: cell-based
[21] = target: Glypican-3 (Homo sapiens) (UniProt P51654); experiment: Binding affinity to GPC3 in human HeLa cells assessed as increase in fluorescence (red color) measured after 4 hrs incubation by immunofluorescence staining based assay; format: cell-based
[22] = target: Glypican-3 (Homo sapiens) (UniProt P51654); experiment: Binding affinity to GPC3 in human LX-2 cells assessed as increase in fluorescence (red color) measured after 4 hrs incubation by immunofluorescence staining based assay; format: cell-based

Compound: CC[C@H](C)[C@@H]([C@@H](CC(=O)N1CCC[C@H]1[C@H](OC)[C@@H](C)C(=O)N[C@H](C)[C@@H](O)c1ccccc1)OC)N(C)C(=O)[C@@H](NC(=O)[C@@H](NC)C(C)C)C(C)C (H-[NMeV]V[Dil][Dolaproine]-X1)
IC50 (Hep 3B2): 8.63 nM
IC50 (Huh-7): 1.05 nM
IC50 (HeLa): 1.47 nM
IC50 (LX-2): 0.46 nM

Compound: CC[C@H](C)[C@@H]([C@@H](CC(=O)N1CCC[C@H]1[C@H](OC)[C@@H](C)C(=O)N[C@H](C)[C@@H](O)c1ccccc1)OC)N(C)C(=O)[C@@H](NC(=O)[C@H](C(C)C)N(C)C(=O)OCc1ccc(NC(=O)[C@H](CCCNC(N)=O)NC(=O)[C@@H](NC(=O)CCCCCN2C(=O)CC(SC[C@H](N)C(=O)N[C@@H](C)C(=O)N[C@@H](CC(C)C)C(=O)N[C@@H](CC(C)C)C(=O)N[C@@H](C)C(=O)N[C@@H](CC(N)=O)C(=O)N[C@@H](Cc3cnc[nH]3)C(=O)N[C@@H](CCC(=O)O)C(=O)N[C@@H](CCC(=O)O)C(=O)N[C@@H](CC(C)C)C(=O)N[C@@H](Cc3ccccc3)C(=O)N[C@@H](CCC(N)=O)C(=O)N[C@H](C(N)=O)[C@@H](C)O)C2=O)C(C)C)cc1)C(C)C (stereo not given in full) (I: H-CALLANHEELFQT-NH2 / II: V[Cit][PABC][NMeV]V[Dil][Dolaproine]-X1; linker I:1-II:N via Hexanoyl(6-succinimido-3yl))
IC50 (Hep 3B2): > 100 nM
IC50 (Huh-7): 81.4 nM
IC50 (HeLa): > 100 nM
IC50 (LX-2): > 100 nM

remaining at 8 h, 500 µM [1]: 57.2%
remaining at 48 h, 500 µM [2]: 25.3%
remaining at 8 h, 500 µM [3]: 19.9%
half-life at 500 µM [4]: 8.8 h
half-life at 500 µM [5]: 4 h
Stability [6]: Stable
Drug metabolism (Cathepsin B): metabolite_detected
Compound: CC[C@H](C)[C@@H]([C@@H](CC(=O)N1CCC[C@H]1[C@H](OC)[C@@H](C)C(=O)N[C@H](C)[C@@H](O)c1ccccc1)OC)N(C)C(=O)[C@@H](NC(=O)[C@H](C(C)C)N(C)C(=O)OCc1ccc(NC(=O)[C@H](CCCNC(N)=O)NC(=O)[C@@H](NC(=O)CCCCCN2C(=O)CC(SC[C@H](N)C(=O)N[C@@H](CO)C(=O)N[C@@H](CC(N)=O)C(=O)N[C@@H](CC(=O)O)C(=O)N[C@@H](CCCNC(=N)N)C(=O)N3CCC[C@H]3C(=O)N3CCC[C@H]3C(=O)N[C@@H](CC(N)=O)C(=O)N[C@H](C(=O)N[C@@H](CC(C)C)C(=O)N[C@@H](CCC(N)=O)C(=O)N[C@@H](CCCCN)C(=O)N[C@@H](CCCNC(=N)N)C(N)=O)[C@@H](C)CC)C2=O)C(C)C)cc1)C(C)C (stereo not given in full)
IC50 (Hep 3B2): 12.2 nM
IC50 (Huh-7): 1.91 nM
IC50 (HeLa): > 100 nM
IC50 (LX-2): > 100 nM
Activity [7]: Non-toxic
Activity [8]: Non-toxic
Activity [9]: Non-toxic
Activity [10]: Non-toxic
Activity [11]: Non-toxic
Activity [12]: Non-toxic
Activity [13]: Non-toxic
Activity [14]: Non-toxic
Activity [15]: Non-toxic
Activity [16]: Non-toxic
Activity [17]: Non-toxic
Activity [18]: Non-toxic

Activity [19]: Active
Activity [20]: Active
Activity [21]: Active
Activity [22]: Active
Compound: CC[C@H](C)[C@@H]([C@@H](CC(=O)N1CCC[C@H]1[C@H](OC)[C@@H](C)C(=O)N[C@H](C)[C@@H](O)c1ccccc1)OC)N(C)C(=O)[C@@H](NC(=O)[C@H](C(C)C)N(C)C(=O)OCc1ccc(NC(=O)[C@H](CCCNC(N)=O)NC(=O)[C@@H](NC(=O)CCCCCN2C(=O)CC(SC[C@H](NC(=O)CCCCC[N+]3=C(/C=C/C=C/C=C4\N(C)c5ccc6ccccc6c5C4(C)C)C(C)(C)c4c3ccc3ccccc43)C(=O)N[C@@H](CO)C(=O)N[C@@H](CC(N)=O)C(=O)N[C@@H](CC(=O)O)C(=O)N[C@@H](CCCNC(=N)N)C(=O)N3CCC[C@@H]3C(=O)N3CCC[C@@H]3C(=O)N[C@@H](CC(N)=O)C(=O)N[C@H](C(=O)N[C@@H](CC(C)C)C(=O)N[C@@H](CCC(N)=O)C(=O)N[C@@H](CCCCN)C(=O)N[C@@H](CCCNC(=N)N)C(N)=O)[C@@H](C)CC)C2=O)C(C)C)cc1)C(C)C (stereo not given in full)
